{"source": "paper PMC1322272", "about": "(2005)", "test_system": "35mer RNA aptamer (RNA, aptamer) GGCGUGUAGGAUAUGCUUCGGCAGAAGGACACGCC", "test": "fluorescence quenching of ligand", "conditions": "50 mM NaCl, 10 mM MgCl2; 100 mM HEPES, 295 K; 1 µM ligand, RNA titrated"}
{"smiles": "Cc1cc2nc3c(=O)[nH]c(=O)nc-3n(C[C@H](O)[C@H](O)[C@H](O)COP(=O)(O)O)c2cc1C", "values": [{"measurement": "ΔGassociation", "value": "-37 ± 1", "unit": "kJ/mol"}]}
